Test results: ChEMBL document CHEMBL4842340, “Development of Cagrilintide, a Long-Acting Amylin Analogue” (J Med Chem, 2021)
In brackets after ≈: the same amount, converted by molar mass. *1 amine or outer side, *2 acyl side, *3 side chain or, on linkers, in order; H or OH if unused. Where a SMILES comes first, the peptide text is derived from it. Bridges are numbered along the chain shown (N, C = ends). [ ]: non-standard residue; d: D form. The star is where a group is joined. C20 diacid = O=C(O)CCCCCCCCCCCCCCCCCCC(=O)*; γGlu = O=C(O)[C@H](CCC(=O)[*:2])N[*:1]

Assays:
[1] = Displacement of [125I]-amylin from human AMY3R (CTR+RAMP3) expressed in BHK-13 cells measured after 120 mins by scintillation proximity assay; assay type: cell-based
[2] = target: Insulin (Homo sapiens) (UniProt P01308); assay: Effect on insulin (unknown origin) amyloid fibril formation assessed as lag time in glycyl-glycine buffer at pH 4 measured after 45 hrs by thioflavin-T fluorescence assay
Sequence of Insulin (Homo sapiens) (P01308 whole entry): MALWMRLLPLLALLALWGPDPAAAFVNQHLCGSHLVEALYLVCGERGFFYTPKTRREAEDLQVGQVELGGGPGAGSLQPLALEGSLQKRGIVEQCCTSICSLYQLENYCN

[3] = Displacement of [125I]-amylin from rat AMY3R (CTR+RAMP3) expressed in BHK-13 cells measured after 120 mins by scintillation proximity assay; assay type: cell-based
[4] = organism: Rattus norvegicus; assay: Ratio of EC50 for rat calcitonin receptor expressed in BHK-13 cells to EC50 for rat AMY3R (CT+RAMP3) expressed in tk-ts13 cells; assay type: cell-based
[5] = test system: Rattus norvegicus; assay: Reduction in food intake in Sprague-Dawley rat at 3 nmol/kg, sc administered as single dose measured upto 24 hrs relative to control; assay type: functional; parameters: scale not given: the % may be the effect or the level left; details: time hrs <=24
[6] = Agonist activity at human calcitonin receptor expressed in BHK570 cells assessed as increase in intracellular cAMP concentration incubated for 3 hrs in absence of albumin by CRE luciferase reporter gene assay; assay type: cell-based; details: BHK570, 3 h
[7] = Displacement of [125I]-calcitonin from human calcitonin receptor expressed in tk-ts 13 cells measured after 120 mins by scintillation proximity assay; assay type: cell-based; details: tk-ts13
[8] = organism: Homo sapiens; assay: Ratio of EC50 for human calcitonin receptor expressed in BHK570 cells to EC50 for human AMY3R (CT+RAMP3) expressed in Hollex1 cells; assay type: cell-based
[9] = Solubility of the compound in bis-tris propane at pH 7 by UPLC analysis; assay type: physicochemical; details: bis-tris propane buffer
[10] = Solubility of the compound in bis-tris propane at pH 6.5 by UPLC analysis; assay type: physicochemical; details: bis-tris propane buffer
[11] = Solubility of the compound in lactate at pH 3 by UPLC analysis; assay type: physicochemical; details: lactate buffer
[12] = Solubility of the compound in lactate at pH 4 by UPLC analysis; assay type: physicochemical; details: lactate buffer
[13] = organism: Homo sapiens; assay: Ratio of IC50 for displacement of [125I]-calcitonin from human calcitonin receptor expressed in tk-ts 13 cells to IC50 for displacement of [125I]-amylin from human AMY3R (CTR+RAMP3) expressed in BHK-13 cells; assay type: cell-based
[14] = Solubility of the compound in bis-tris propane at pH 7.5 by UPLC analysis; assay type: physicochemical; details: bis-tris propane buffer
[15] = organism: Rattus norvegicus; assay: Ratio of IC50 for displacement of [125I]-calcitonin from rat calcitonin receptor expressed in tk-ts 13 cells to IC50 for displacement of [125I]-amylin from rat AMY3R (CTR+RAMP3) expressed in BHK-13 cells; assay type: cell-based
[16] = Agonist activity at rat calcitonin receptor expressed in BHK-13 cells assessed as increase in intracellular cAMP concentration incubated for 25 mins by CRE luciferase reporter gene assay; assay type: cell-based; details: BHK-13, 25 min
[17] = Solubility of the compound in lactate at pH 5 by UPLC analysis; assay type: physicochemical; details: lactate buffer
[18] = test system: Rattus norvegicus; assay: Reduction in food intake in Sprague-Dawley rat at 3 nmol/kg, sc administered as single dose measured after 24 to 48 hrs relative to control; assay type: functional; parameters: scale not given: the % may be the effect or the level left; details: time 24-48 hrs
[19] = test system: Rattus norvegicus; assay: Reduction in food intake in Sprague-Dawley rat at 30 nmol/kg, sc administered as single dose measured after 24 to 48 hrs relative to control; assay type: functional; parameters: scale not given: the % may be the effect or the level left; details: time 24-48 hrs
[20] = Displacement of [125I]-calcitonin from rat calcitonin receptor expressed in tk-ts 13 cells measured after 120 mins by scintillation proximity assay; assay type: cell-based; details: tk-ts13
[21] = Solubility of the compound in bis-tris propane at pH 6 by UPLC analysis; assay type: physicochemical; details: bis-tris propane buffer
[22] = Agonist activity at human AMY3R (CT+RAMP3) expressed in Hollex1 cells incubated for 3 hrs by luminescence assay; assay type: cell-based; details: Hollex1, 3 h
[23] = Agonist activity at rat AMY3R (CT+RAMP3) expressed in tk-ts13 cells assessed as increase in intracellular cAMP level incuabted for 25 mins by CRE luciferase reporter gene assay; assay type: cell-based; details: tk-ts13, 25 min
[24] = target: Insulin (Homo sapiens) (UniProt P01308); assay: Effect on insulin (unknown origin) amyloid fibril formation assessed as peptide recovery in glycyl-glycine buffer at pH 4 measured after 45 hrs by thioflavin-T fluorescence assay relative to control; parameters: concentration or dose not given beside the values
[25] = test system: Rattus norvegicus; assay: Reduction in food intake in Sprague-Dawley rat at 30 nmol/kg, sc administered as single dose measured upto 24 hrs relative to control; assay type: functional; parameters: scale not given: the % may be the effect or the level left; details: time hrs <=24
[26] = Solubility of the compound in bis-tris propane at pH 8 by UPLC analysis; assay type: physicochemical; details: bis-tris propane buffer

| Structure (SMILES) | IC50 [1] [nM] | TIME [2] [h] | IC50 [3] [nM] | Ratio EC50 [4] | Activity [5] [%] | EC50 [6] [nM] | IC50 [7] [nM] | Ratio EC50 [8] | solubility [9] [µM] | solubility [10] [µM] | solubility [11] [µM] | solubility [12] [µM] | Ratio IC50 [13] | solubility [14] [µM] | Ratio IC50 [15] | EC50 [16] [nM] | solubility [17] [µM] | Activity [18] [%] | Activity [19] [%] | IC50 [20] [nM] | further results |
| --- | --- | --- | --- | --- | --- | --- | --- | --- | --- | --- | --- | --- | --- | --- | --- | --- | --- | --- | --- | --- | --- |
| CC[C@H](C)[C@H](NC(=O)[C@@H]1CCCN1C(=O)CNC(=O)[C@H](Cc1ccccc1)NC(=O)[C@H](CC(N)=O)NC(=O)[C@H](CC(N)=O)NC(=O)[C@H](CO)NC(=O)[C@H](CO)NC(=O)[C@H](CCC(=O)O)NC(=O)[C@H](Cc1cnc[nH]1)NC(=O)[C@H](CC(C)C)NC(=O)[C@H](Cc1ccccc1)NC(=O)[C@H](CCC(=O)O)NC(=O)[C@H](C)NC(=O)[C@H](CC(C)C)NC(=O)[C@H](CCCNC(=N)N)NC(=O)[C@H](CCC(N)=O)NC(=O)[C@@H](NC(=O)[C@H](C)NC(=O)[C@@H]1CSSC[C@H](NC(=O)[C@H](Cc2cnc[nH]2)NC(=O)CC[C@H](NC(=O)CCCCCCCCCCCCCCCCCCC(=O)O)C(=O)O)C(=O)N[C@@H](CC(N)=O)C(=O)N[C@@H]([C@@H](C)O)C(=O)N[C@@H](C)C(=O)N[C@@H]([C@@H](C)O)C(=O)N1)[C@@H](C)O)C(=O)N[C@@H](CC(C)C)C(=O)N1CCC[C@H]1C(=O)N1CCC[C@H]1C(=O)N[C@H](C(=O)N[C@@H](CC(N)=O)C(=O)N[C@H](C(=O)NCC(=O)N[C@@H](CO)C(=O)N[C@@H](CC(N)=O)C(=O)N[C@H](C(=O)N[C@@H](Cc1ccc(O)cc1)C(N)=O)[C@@H](C)O)C(C)C)[C@@H](C)O ({C20 diacid-γGlu}-HCNTATCATQRLAEFLHESSNNFGPILPPTNVGSNTY-NH2; disulfide 2-7) | 0.137 | 11 | 0.034 | 6 | 50 | 0.128 | 1.75 | 2 | 15 (≈ 66.9 µg/mL) | 16 (≈ 71.3 µg/mL) | 200 (≈ 891 µg/mL) | 200 (≈ 891 µg/mL) | 13 | 58 (≈ 259 µg/mL) | 24 | 0.355 | 200 (≈ 891 µg/mL) | 45 | 92 | 0.812 | solubility [21]: 52 µM (≈ 232 µg/mL); EC50 [22]: 0.083 nM; EC50 [23]: 0.063 nM; Activity [24]: 0%; Activity [25]: 93%; solubility [26]: 138 µM (≈ 615 µg/mL) |
| CC[C@H](C)[C@H](NC(=O)[C@@H]1CCCN1C(=O)CNC(=O)[C@H](Cc1ccccc1)NC(=O)[C@H](CC(N)=O)NC(=O)[C@H](CC(N)=O)NC(=O)[C@H](CO)NC(=O)[C@H](CO)NC(=O)[C@H](Cc1cnc[nH]1)NC(=O)[C@H](Cc1cnc[nH]1)NC(=O)[C@H](CC(C)C)NC(=O)[C@H](Cc1ccccc1)NC(=O)[C@H](CC(N)=O)NC(=O)[C@H](C)NC(=O)[C@H](CC(C)C)NC(=O)[C@H](CCCNC(=N)N)NC(=O)[C@H](CCC(N)=O)NC(=O)[C@@H](NC(=O)[C@H](C)NC(=O)[C@@H]1CSSC[C@H](NC(=O)[C@H](Cc2cnc[nH]2)NC(=O)CC[C@H](NC(=O)[C@H](Cc2cnc[nH]2)NC(=O)[C@H](Cc2cnc[nH]2)NC(=O)CCCCCCCCCCCCCCCCCCC(=O)O)C(=O)O)C(=O)N[C@@H](CC(N)=O)C(=O)N[C@@H]([C@@H](C)O)C(=O)N[C@@H](C)C(=O)N[C@@H]([C@@H](C)O)C(=O)N1)[C@@H](C)O)C(=O)N[C@@H](CC(C)C)C(=O)N1CCC[C@H]1C(=O)N1CCC[C@H]1C(=O)N[C@H](C(=O)N[C@@H](CC(N)=O)C(=O)N[C@H](C(=O)NCC(=O)N[C@@H](CO)C(=O)N[C@@H](CC(N)=O)C(=O)N[C@H](C(=O)N[C@@H](Cc1ccc(O)cc1)C(N)=O)[C@@H](C)O)C(C)C)[C@@H](C)O ({C20 diacid}-HH[γGlu]HCNTATCATQRLANFLHHSSNNFGPILPPTNVGSNTY-NH2; disulfide 5-10) | 0.216 | 6 | 0.149 | 42 | 32 | 0.136 | 1.3 | 2 | 1 (≈ 4.72 µg/mL) | 1 (≈ 4.72 µg/mL) | 200 (≈ 945 µg/mL) | 200 (≈ 945 µg/mL) | 6 | 1 (≈ 4.72 µg/mL) | 22 | 14.1 | 200 (≈ 945 µg/mL) | 4 | 44 | 3.33 | solubility [21]: 1 µM (≈ 4.72 µg/mL); EC50 [22]: 0.074 nM; EC50 [23]: 0.335 nM; Activity [24]: 9%; Activity [25]: 75%; solubility [26]: 1 µM (≈ 4.72 µg/mL) |
